Patent US20240270739A1, “Heteroaryl Fluoroalkenes As DGK Inhibitors” (Incyte Corporation, priority 2023, published 2024)

Tests used:
[1] = biological target: T1, DGKα (Homo sapiens, UniProt P23743); test: In vitro DGKα inhibition assay (ADP-Glo); assay type: biochemical; conditions: His-tagged human recombinant enzyme, 0.1 nM DGKα, 50 μM ATP, 20 μM DLG, 90 minute incubation
T1 construct: His; purchased Signal Chem D21-10BH
Procedure: (§1) The DGKα and DGKζ biochemical reactions were performed using His-tagged human recombinant enzymes (Signal Chem, DGKα, #D21-10BH; DGKζ, #D30-10H)) and DLG (Dilauroyl-sn-glycerol) lipid substrate (Signal Chem, #D430-59). ADP-Glo assay was performed using ADP-Glo™ kinase Assay kit (Promega, #V9104). The reactions were carried out in assay buffer containing 40 mM Tris, pH 7.5, 0.1% CHAPS, 0.1% Prionex, 40 mM NaCl, 5 mM MgCl2, 1 mM CaCl2, and 1 mM DTT. DGKα reactions contained 0.1 nM DGKα, 50 μM ATP, and 20 μM DLG. And DGKζ reactions contained 0.4 nM DGKζ, 30 μM ATP, and 20 μM DLG.
(§2) For compound inhibition studies, 40 nL test compound in DMSO was added to wells of white polystyrene plates in 384-well (Greiner, #784075) or 1536-well format (Greiner, #782075). Compounds were added with top concentration of 2 mM with 11 point, 3-fold dilution series. Enzyme solution (contains 2×DGK enzyme concentration in 1× assay buffer) was added to the plate in 2 μL/well volume, followed by 2 μL/well of substrate solution (contains 2× concentration of ATP and DLG substrate in 1× assay buffer). Plates were then centrifuged for 1 min at 1200 RPM and sealed or lidded. For 4 μL reaction volume, test compounds were therefore diluted 100× to final top concentration of […]. After 90 minute incubation, reactions were quenched by addition of 2 μL/well Promega ADP-Glo Reagent, followed by centrifugation and lidding. After 60 min incubation, 2 μL/well Promega Kinase Detection Reagent was added, plates centrifuged, and incubated for 30 min. Plates were then read using Luminescence method on BMG PHERAstar FSX plate reader. Percent inhibition was calculated and IC50s were determined using 4-parameter fit in Genedata Screener. Labcyte Echo acoustic dispenser was used for compound addition, and Formulatrix Tempest liquid handler was used for all reagent dispenses. The compounds of the disclosure were tested in one or more of the assays described above, and the resulting data are shown in Table A.

[2] = biological target: T2, DGKζ (Homo sapiens, UniProt Q13574); test: In vitro DGKζ inhibition assay (ADP-Glo); assay type: biochemical; conditions: His-tagged human recombinant enzyme, 0.4 nM DGKζ, 30 μM ATP, 20 μM DLG, 90 minute incubation
T2 construct: His; purchased Signal Chem D30-10H
Procedure: as §1, §2

T1 sequence (P23743 whole entry): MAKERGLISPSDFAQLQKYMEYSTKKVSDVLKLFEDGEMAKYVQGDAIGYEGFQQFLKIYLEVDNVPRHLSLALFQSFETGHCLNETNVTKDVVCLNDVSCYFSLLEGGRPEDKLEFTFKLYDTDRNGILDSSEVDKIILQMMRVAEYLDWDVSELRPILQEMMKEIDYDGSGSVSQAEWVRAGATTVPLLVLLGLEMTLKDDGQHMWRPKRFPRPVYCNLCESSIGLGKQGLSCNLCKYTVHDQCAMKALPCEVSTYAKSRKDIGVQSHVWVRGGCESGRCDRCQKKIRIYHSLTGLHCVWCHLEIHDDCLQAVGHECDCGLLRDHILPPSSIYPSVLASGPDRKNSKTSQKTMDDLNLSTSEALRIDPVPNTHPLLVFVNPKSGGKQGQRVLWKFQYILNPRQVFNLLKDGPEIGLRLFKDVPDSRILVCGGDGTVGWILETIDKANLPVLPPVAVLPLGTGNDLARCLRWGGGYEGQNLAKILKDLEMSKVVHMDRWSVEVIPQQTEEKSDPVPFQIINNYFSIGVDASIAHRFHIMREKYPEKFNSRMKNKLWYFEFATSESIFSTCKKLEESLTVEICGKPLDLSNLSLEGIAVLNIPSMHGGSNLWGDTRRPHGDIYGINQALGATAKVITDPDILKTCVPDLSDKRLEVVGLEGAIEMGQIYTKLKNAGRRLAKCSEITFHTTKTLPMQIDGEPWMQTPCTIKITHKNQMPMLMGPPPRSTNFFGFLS
T2 sequence (Q13574 whole entry): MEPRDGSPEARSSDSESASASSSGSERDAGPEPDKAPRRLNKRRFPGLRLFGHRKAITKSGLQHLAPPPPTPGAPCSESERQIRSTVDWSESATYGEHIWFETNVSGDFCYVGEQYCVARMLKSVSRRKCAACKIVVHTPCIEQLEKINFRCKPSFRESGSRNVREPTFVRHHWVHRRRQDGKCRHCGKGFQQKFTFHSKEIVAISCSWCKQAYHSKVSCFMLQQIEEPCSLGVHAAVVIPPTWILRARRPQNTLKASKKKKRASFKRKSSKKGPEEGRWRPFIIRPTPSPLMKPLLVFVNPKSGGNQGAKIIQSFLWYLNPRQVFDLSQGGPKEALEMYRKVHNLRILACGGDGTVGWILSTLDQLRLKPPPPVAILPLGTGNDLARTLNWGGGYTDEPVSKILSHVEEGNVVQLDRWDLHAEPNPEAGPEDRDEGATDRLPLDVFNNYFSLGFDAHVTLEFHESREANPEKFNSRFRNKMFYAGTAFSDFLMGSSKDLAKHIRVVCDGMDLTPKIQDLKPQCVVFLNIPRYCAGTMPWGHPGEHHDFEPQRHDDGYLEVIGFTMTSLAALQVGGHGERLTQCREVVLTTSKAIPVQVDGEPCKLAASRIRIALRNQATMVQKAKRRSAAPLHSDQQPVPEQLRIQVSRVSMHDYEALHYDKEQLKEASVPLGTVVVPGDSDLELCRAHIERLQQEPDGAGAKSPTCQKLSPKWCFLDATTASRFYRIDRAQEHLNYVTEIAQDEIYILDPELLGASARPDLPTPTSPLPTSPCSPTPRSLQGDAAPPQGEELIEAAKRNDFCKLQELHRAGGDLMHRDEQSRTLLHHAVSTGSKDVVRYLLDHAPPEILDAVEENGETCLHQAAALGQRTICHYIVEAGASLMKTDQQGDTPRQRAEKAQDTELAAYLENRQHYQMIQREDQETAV

Structure (SMILES)	IC50 [1] [nM]	IC50 [2] [nM]
F/C(=C\c1ccc(Oc2cccc(F)c2F)c(Cl)c1N1CCCC2(CCN(CC3CC3)CC2)C1)c1ccn(-c2ccnnc2)n1 [Example 22, (Z)-2-(2-Chloro-3-(2,3-difluorophenoxy)-6-(2-fluoro-2-(1-(pyridazin-4-yl)-1H-pyrazol-3-yl)vinyl)phenyl)-9-(cyclopropylmethyl)-2,9-diazaspiro[5.5]undecane]	≤ 20	20 to 200
OCCN1CCC2(CCCN(c3c(/C=C(\F)c4csc(-c5ccnnc5)n4)ccc(Oc4ccccc4)c3C(F)(F)F)C2)CC1 [Example 23, (Z)-2-(2-(6-(2-Fluoro-2-(2-(pyridazin-4-yl)thiazol-4-yl)vinyl)-3-phenoxy-2-(trifluoromethyl)phenyl)-2,9-diazaspiro[5.5]undecan-9-yl)ethan-1-ol]	20 to 200	≤ 20
CCN1CCC2(CCCN(c3c(/C=C(\F)c4ccn(-c5ccnnc5)n4)ccc(Oc4ccccc4)c3C(F)(F)F)C2)CC1 [Example 24, (Z)-9-Ethyl-2-(6-(2-fluoro-2-(1-(pyridazin-4-yl)-1H-pyrazol-3-yl)vinyl)-3-phenoxy-2-(trifluoromethyl)phenyl)-2,9-diazaspiro[5.5]undecane]	20 to 200	≤ 20
